RP-LC retention time data for 78 compounds are collected here from the METLIN SMRT retention time set (Domingo-Almenara et al. 2019).

The data set is described as follows: gradient 5% acetonitrile 3 min, to 50% in 2 min, to 85% in 15 min, held 3 min, 100 µL/min. To be noted: column: Zorbax Extend-C18 2.1 x 50 mm; eluents: water / acetonitrile, 0.1% formic acid. In a few lines:
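Pure standards were run in mixtures of ~100 molecules by HPLC coupled to a quadrupole time-of-flight mass spectrometer. The column was a Zorbax Extend-C18 (2.1 × 50 mm, 1.8 μm) at 100 μL/min, with water and acetonitrile each containing 0.1% formic acid, in positive and negative ionization mode. Dead and dwell volumes were 40 μL and 900 μL. Retention time was taken from computationally picked adduct peaks, each manually inspected, with data collected over 3 months.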
As for `Cc1ccc(CCNC(=O)c2ccc3c(c2)NC(=O)C2CCCCN32)cc1` (stereo not drawn), the RP-LC retention time is 862 s.
Take `CC(C)n1cc(S(=O)(=O)Nc2cc(F)cc(F)c2)c2cccnc21`: the RP-LC retention time came to 936 s.
In the case of `CCOC(=O)Cn1c(C2CC(=O)N(c3ccccc3)C2)nc2ccccc21` (stereo not drawn) it was 770 s.
In the case of `CNC(=O)c1ccc(-c2nc3cc(NS(=O)(=O)c4ccc5c(c4)CCCC5)ccc3n2C)cc1` it was 685 s; in that of `CCOc1ccccc1-n1ccn(Cc2nc(-c3ccc(OC)cc3)no2)c(=O)c1=O`, 846 s; in that of `CC(C)N1C(=O)C(C)N(C(=O)NC2CCCC2)c2cccnc21` (stereo not drawn), 924 s.
In the case of `O=C(Cn1nc2c(N3CCc4ccccc4C3)nccn2c1=O)NC1CCCC1`, the RP-LC retention time was found to be 793 s.
Then `COc1ccccc1-c1nc(-c2ccc(S(=O)(=O)N3CCC(C)CC3)cc2)no1`, with 1290 s.
In the case of `CCc1ccccc1NS(=O)(=O)c1cc(-c2[nH]ncc2C(=O)N2CCCC2)oc1C` it was 749 s; in that of `CCc1ccc(NC(=O)Cc2c(C)nn(-c3nc(-c4ccc(F)cc4)cs3)c2C)cc1`, 1240 s; in that of `COc1ccc(OC)c(NC(=O)C2CCCN2S(=O)(=O)c2ccc3c(c2)NC(=O)CO3)c1` (stereo not drawn), 803 s.
Then `O=C(Cn1c(-c2ccccc2F)nc2ccccc21)N1CCOCC1`, with 600 s.
The compound `Cc1ccc(NC(=O)C2CCCN(c3ncnc4c3nc3n4CCCCC3)C2)c(Br)c1` (stereo not drawn) gave an RP-LC retention time of 930 s.
`O=S(=O)(Cc1ccc(Cl)cc1)N1CCC(CN2CCCCCC2)CC1`: the RP-LC retention time stood at 683 s.
In the case of `Cc1ccc2[nH]cc(CCN3CC(C(=O)Nc4ccc5c(c4)CCC5)CC3=O)c2c1` (stereo not drawn) it was 925 s; in that of `COc1ccccc1CNc1ncc(C(=O)O)c(-c2ccncc2)n1`, 638 s.
The compound `CCc1nc(-c2csc(S(=O)(=O)N3CCCC(C(=O)NCc4ccc(C)cc4)C3)c2)no1` (stereo not drawn) displayed an RP-LC retention time of 1060 s.
Then `CCC1CN2C=NC(N3CCN(C(=O)c4nn(C)c5ccccc45)CC3)=CC2=N1` (stereo not drawn), with 636 s; and `CN(CCCC(=O)O)S(=O)(=O)c1ccc(N)cc1`, with 598 s.
Then `Cc1ccc2oc(N3CCN(C(=O)Cc4ccccc4)CC3)nc2n1`, with 620 s; and `CNC(=O)N1CCCC(c2cccc(C(=O)NCc3cc(OC)ccc3OC)c2)C1` (stereo not drawn), with 766 s.
In the case of `Cc1ccc(Cl)cc1N1CCN(C(=O)c2[nH]c(C)c(S(=O)(=O)N3CCC(C)CC3)c2C)CC1` it was 1190 s; in that of `CCOC(=O)N1CCC(NC(=O)c2cc3sc(Cl)cc3n2CC)CC1`, 985 s.
Consider `CCOc1cccc(-c2noc(Cn3c(=O)n(-c4ccc(F)cc4)c(=O)c4sccc43)n2)c1`, for which the RP-LC retention time came out at 1050 s.
Then `COC(=O)c1ccc(NC(=O)C2CCCN(S(=O)(=O)c3cc(-c4noc(C)n4)cs3)C2)cc1` (stereo not drawn), with 984 s; and `CCOC(=O)c1c(C)[nH]c(C)c1S(=O)(=O)N1CCC(C(=O)NCCc2sccc2C)CC1`, with 794 s.
On to `CCCS(=O)(=O)N1CCC(Cc2nncn2-c2ccccc2)CC1`, for which the RP-LC retention time came out at 713 s.
Then `CC(C)CNC(=O)CCc1nc2ccccc2n(CC(=O)NCc2ccc(F)cc2)c1=O`, with 783 s; and `Cc1nc(Cn2cccc2C(=O)Nc2ccc(Cl)cc2F)no1`, with 893 s.
Then `Cc1cc(NC(=O)C2CCCN2S(=O)(=O)c2ccc(Cl)s2)n(C(C)C)n1` (stereo not drawn), with 776 s; and `COc1ccc(C)cc1NC(=O)Cn1ncc2c(c1=O)N(C1CC1)C(=O)CS2`, with 794 s.
Then `CCOC(=O)c1[nH]c(C)c(C(=O)N(Cc2ccccc2)C(C)C)c1C`, with 860 s.
`CCOC(=O)c1c(C)[nH]c(C(=O)N2CCC(CC(=O)NC3CCCC3)CC2)c1C` gave an RP-LC retention time of 720 s.
In the case of `COCCN1C(=O)[C@H]2CN(Cc3ccc(C)cc3)C[C@H]2C1=O` it was 616 s.
In the case of `Nc1cc(C2CCN(C(=O)Nc3ccc(F)c(Cl)c3)CC2)no1` it was 750 s; in that of `COc1ccc(-c2noc(C3CCCN3C(=O)c3cc4ccccc4[nH]3)n2)cc1OC` (stereo not drawn), 971 s.
In the case of `CN(C)CCNCc1ccc(-c2ccc(Cl)cc2Cl)o1` it was 609 s.
Turning to `CC1CCN(c2nccnc2Oc2ccc(C(=O)N3CCN(c4ccccn4)CC3)cc2)CC1`, the RP-LC retention time worked out at 711 s.
Then `CSc1cccc(NC(=O)N2CCN(c3cnn4c(C5CC5)nnc4c3)CC2)c1`, with 694 s; and `CCOc1ccc(-c2noc(CN3N=NC4C(=O)N(c5cccc(F)c5)C(=O)C43)n2)cc1OC` (stereo not drawn), with 926 s.
In the case of `COc1cc(F)ccc1-c1ccnc2nc(CC(C)C)nn12` it was 862 s; in that of `O=C(NCc1cccc(Cl)c1)C1CCN(C(=O)c2ncn3c2COC(c2ccccc2)C3)CC1` (stereo not drawn), 760 s.
In the case of `Cc1cc(C)cc(N2CCC(NC(=O)c3ccsc3)C2=O)c1` (stereo not drawn) it was 815 s.
Consider `CC(=O)N1CCC(n2c(C)nc(C(=O)Nc3ccc4c(c3)OCCO4)c2C)CC1`, for which the RP-LC retention time came to 612 s.
In turn, `Cc1ccc(S(=O)(=O)N2CCC(n3c(-c4ccoc4)nc4cccnc43)C2)cc1` (stereo not drawn) showed an RP-LC retention time of 863 s.
Then `COC(=O)c1cccc(C(=O)Nc2cccc(OC)c2)n1`, with 817 s; and `COc1cc(-c2nnc(-c3ccc(C)c(S(=O)(=O)N4CCOCC4)c3)o2)cc(OC)c1OC`, with 891 s.
Then `O=C(NCc1cccc(Cl)c1)c1c(O)c2cccnc2n(-c2ccccc2)c1=O`, with 1220 s.
In turn, `CN1C(=O)c2ccccc2Oc2ccc(C(=O)NC3CCCCCC3)cc21` registered an RP-LC retention time of 958 s.
The compound `COc1ccccc1-c1cc2c(=O)n(Cc3nc(-c4ccccc4OC)oc3C)ccn2n1` gave an RP-LC retention time of 1020 s.
In the case of `CCN(CC)CCn1c(NCc2ccc(Br)cc2)nc2ccccc21` it was 581 s; in that of `CN(Cc1ccco1)C(=O)c1ccc2ncnc(N3CCCCC3)c2c1`, 632 s; in that of `CCC(C)NC(=O)C1CCN(c2nccc(-n3nc(C)cc3C)n2)CC1` (stereo not drawn), 745 s.
In the case of `CCCN1CCn2cc(S(=O)(=O)NCc3ccc(OC)cc3)cc2C1=O` it was 990 s.
The compound `O=C(Nc1ccc(-c2cn3c(C(=O)N4CCCC4)csc3n2)cc1)c1ccccc1` had an RP-LC retention time of 780 s.
Then `Cc1nn2c(CNS(=O)(=O)c3ccc4c(c3)OCCO4)c(-c3ccccc3)nc2s1`, with 817 s.
In the case of `Cc1ccc(N2CC(c3nc(-c4ccncc4)no3)CC2=O)cc1Cl` (stereo not drawn) it was 845 s; in that of `CCOc1ccccc1NC(=O)C1CCN(c2cncnc2N2CCCCC2)CC1`, 742 s.
Turning to `O=C(NCCCN1CCN(Cc2ccccc2)CC1)c1sc2ncccc2c1-n1cccc1`, the RP-LC retention time was found to be 646 s.
Then `CCc1cccc(C)c1Nc1c(-c2ccc(Cl)cc2)nc2ncccn12`, with 978 s; and `COc1ccc(-c2noc(C3CC(=O)N(c4ccc(OC)c(OC)c4)C3)n2)cc1OC` (stereo not drawn), with 743 s.
Compound `Cc1cc(C2CCCN2C(=O)c2cc(-c3ccccc3F)no2)no1` (stereo not drawn) registered an RP-LC retention time of 885 s.
Consider `O=C(Cn1ncc2c(N3CCN(c4ccccn4)CC3)ncnc21)Nc1cccc(F)c1`, for which the RP-LC retention time was 563 s.
Then `CCOc1cc(C2c3c(n[nH]c3C)C(=O)N2C)ccc1O` (stereo not drawn), with 626 s.
Then `O=C1CCCN1CCCN1C(=O)[C@H]2CN(Cc3ccc(F)cc3Cl)C[C@H]2C1=O`, with 658 s.
Compound `O=C(Cn1cccc(-c2nc(-c3ccc(Br)cc3)no2)c1=O)NC1CCCC1` registered an RP-LC retention time of 896 s.
In the case of `CC1CCCCN1CCNC(=O)CCCn1c(=O)c2cccn2c2ccccc21` (stereo not drawn) it was 621 s; in that of `COc1ccc(C(=O)N2CCC(COc3ccc(C(=O)NC4CC4)cc3)CC2)cc1F`, 798 s.
As to `COc1ccc(-c2nnc(-c3ccc(-n4ccnc4)nc3)o2)c(OC)c1`, the RP-LC retention time came to 630 s.
Compound `CCOC(=O)C1CCN(C(=O)c2ccc3c(c2)CCCN3S(C)(=O)=O)CC1` yielded an RP-LC retention time of 765 s.
On to `Cc1ccc(Nc2nc(C(=O)NC3CCCC3)nc3ccccc23)cc1`, for which the RP-LC retention time came to 853 s.
In the case of `Cc1c(S(=O)(=O)N2CCCC(C)C2)c(C)n(C)c1C(=O)Nc1cccc(F)c1` (stereo not drawn) it was 1100 s; in that of `COc1cc(-c2nc3ccc(Cl)cn3c2Nc2ccc3c(c2)OCCO3)ccc1O`, 680 s; in that of `CC1CCCN(c2nccn3c(=O)n(CC(=O)Nc4ccc(Br)cc4F)nc23)C1` (stereo not drawn), 911 s.
In turn, `O=C(C1=CN(c2cccc(Br)c2)c2cc(F)ccc2S1(=O)=O)N1CCCC1` came in with an RP-LC retention time of 863 s.
In the case of `CO[C@H]1C(=O)N(C(C)C)[C@H]1C1CCN(S(=O)(=O)Cc2ccccc2)CC1` it was 829 s; in that of `CSc1ccc(-c2noc(Cn3c(=O)n(CC4CCCO4)c(=O)c4ccccc43)n2)cc1` (stereo not drawn), 1070 s; in that of `Oc1ccc(-c2csc(Nc3ccccn3)n2)cc1O`, 621 s.
